Data reported in ChEMBL document CHEMBL1140101, “Synthesis, binding affinity, and molecular docking analysis of new benzofuranone derivatives as potential antipsychotics” (J Med Chem, 2008).

What was measured:
[1] = biological target: T1, 5-hydroxytryptamine receptor 2A (Homo sapiens, UniProt P28223); assay: Displacement of [3H]ketanserin from human cloned 5HT2A receptor
[2] = biological target: T2, 5-hydroxytryptamine receptor 2C (Homo sapiens, UniProt P28335); assay: Displacement of [3H]mesulergine from human cloned 5HT2C receptor
T2 sequence (P28335 whole entry): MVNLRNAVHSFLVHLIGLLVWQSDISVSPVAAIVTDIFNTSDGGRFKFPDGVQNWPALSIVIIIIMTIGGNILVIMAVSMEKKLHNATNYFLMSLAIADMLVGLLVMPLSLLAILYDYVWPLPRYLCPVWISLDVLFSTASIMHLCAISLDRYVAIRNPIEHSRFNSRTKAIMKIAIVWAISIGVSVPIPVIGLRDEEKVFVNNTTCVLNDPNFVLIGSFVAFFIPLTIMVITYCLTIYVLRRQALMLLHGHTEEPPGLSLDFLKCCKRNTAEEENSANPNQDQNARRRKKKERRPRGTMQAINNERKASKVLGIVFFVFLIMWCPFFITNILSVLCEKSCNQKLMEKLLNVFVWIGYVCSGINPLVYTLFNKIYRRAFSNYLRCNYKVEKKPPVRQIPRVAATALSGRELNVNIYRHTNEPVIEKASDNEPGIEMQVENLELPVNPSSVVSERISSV

[3] = biological target: T1, 5-hydroxytryptamine receptor 2A; assay: Antagonist activity at human cloned 5HT2A receptor; assay type: functional

T1 sequence (P28223 whole entry): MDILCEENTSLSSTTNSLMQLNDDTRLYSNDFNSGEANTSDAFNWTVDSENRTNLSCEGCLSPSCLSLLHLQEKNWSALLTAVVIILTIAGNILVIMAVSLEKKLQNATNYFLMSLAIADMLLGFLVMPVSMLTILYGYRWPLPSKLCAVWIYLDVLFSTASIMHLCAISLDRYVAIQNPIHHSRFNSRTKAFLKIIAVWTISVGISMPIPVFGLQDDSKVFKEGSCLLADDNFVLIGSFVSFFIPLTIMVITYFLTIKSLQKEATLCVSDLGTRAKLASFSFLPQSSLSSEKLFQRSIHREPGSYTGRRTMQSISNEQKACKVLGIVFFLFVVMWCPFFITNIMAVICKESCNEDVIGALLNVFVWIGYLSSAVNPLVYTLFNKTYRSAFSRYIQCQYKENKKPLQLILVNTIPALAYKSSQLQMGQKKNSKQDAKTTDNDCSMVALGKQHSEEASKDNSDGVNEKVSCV

Compound	Ki [1] [nM]	Ki [2] [nM]	pA2 [3]
CCOC(=O)c1oc2c(c1C)C(=O)CC(CN1CCC(C(=O)c3ccc(F)cc3)CC1)C2 (stereo not drawn)	21.9	> 10000	–
O=C1c2ccoc2CCC1CCN1CCC(c2noc3cc(F)ccc23)CC1 (stereo not drawn)	–	–	9.25
O=C1CC(CN2CCC(C(=O)c3ccc(F)cc3)CC2)Cc2oc(-c3ccccc3)cc21 (stereo not drawn)	17.4	> 10000	–
COC(=O)c1coc2c1C(=O)CC(CN1CCC(C(=O)c3ccc(F)cc3)CC1)C2 (stereo not drawn)	25.7	> 10000	–
O=C1CC(CN2CCC(c3noc4cc(F)ccc34)CC2)Cc2oc(-c3ccccc3)cc21 (stereo not drawn)	6.92	3310	–
O=C1CC(CN2CCC(C(=O)c3ccc(F)cc3)CC2)Cc2occc21 (stereo not drawn)	95.5	1550	7.28
O=C1CC(CN2CCC(c3noc4cc(F)ccc34)CC2)Cc2occc21 (racemic)	5.5	339	7.95
O=C(c1ccc(F)cc1)C1CCN(CCC2CCc3occc3C2=O)CC1 (stereo not drawn)	77.6	339	7.58
O=C1CC(CN2CCN(C(=O)c3ccc(F)cc3)CC2)Cc2occc21 (stereo not drawn)	1320	> 10000	–
O=C1C[C@H](CN2CCC(c3noc4cc(F)ccc34)CC2)Cc2occc21	5.13	372	–
COC(=O)c1coc2c1C(=O)CC(CN1CCC(c3noc4cc(F)ccc34)CC1)C2 (stereo not drawn)	1.55	> 10000	–
O=C1C[C@@H](CN2CCC(c3noc4cc(F)ccc34)CC2)Cc2occc21	2.51	245	–
CCOC(=O)c1oc2c(c1C)C(=O)CC(CN1CCC(c3noc4cc(F)ccc34)CC1)C2 (stereo not drawn)	8.32	> 10000	–
